{"source": "patent US20190100555A1", "about": "“EYE-CARE PEPTIDE, ITS COMPOSITION AND METHOD OF USING THE SAME” (PRO SUNFUN BIOTECH RESEARCH AND DEVELOPMENT CO., LTD., priority 2017, published 2019)", "test_system": "HCEC cells", "experiment": "MTT assay (cell viability)", "type": "cell-based, Human", "experimental": "Human corneal epithelial cell line, HCEC, was cultured in complete KSF containing keratinocyte-serum free medium, 5 ng/ml human recombinant EGF, 0.05 mg/ml bovine pituitary extract, 0.005 mg/ml insulin and 500 ng/ml hydrocortisone under 5% CO2 at 37° C.\nCells (2×10^4) in 1 ml complete KSF were seeded in 12-well plates with or without Peptide NO. 12. Seventy microliters of 5 mg/ml 3-(4,5-dimethyl-2-thiazolyl)-2,5-diphenyl-2H-tetrazolium bromide solution (MTT; Sigma) was added to each well for the indicated times and incubated at 37° C. for 3 hours, after which 700 μl 10% SDS in 0.01 N HCl was added to dissolve the MTT formazan crystals. The resultant optical density was measured spectrophotometrically at dual wavelengths, 550 and 630 nm.", "note": "Peptide text beside a SMILES is read from it."}
{"smiles": "CC(C)C[C@H](NC(=O)[C@@H]1CCCN1C(=O)[C@H](CC(N)=O)NC(=O)[C@@H](N)CCCNC(=N)N)C(=O)N[C@@H](CCC(=O)O)C(=O)N[C@@H](CCC(=O)O)C(=O)N[C@H](C(=O)O)[C@@H](C)O", "note": "[Peptide NO. 12, ArgAsnProLeuGluGluThr] (H-RNPLEET-OH)", "values": [{"measurement": "viability of HCEC cells", "setting": "24 hours, 5, 10, 25 and 50 μg/ml", "value": "did not significantly affect viability"}, {"measurement": "viability of HCEC cells", "setting": "48 hours, 5, 10, 25 and 50 μg/ml", "value": "did not significantly affect viability"}]}
